Laboratory results reported in publication PMC9589254, “Disrupting Cu trafficking as a potential therapy for cancer” (Frontiers in Molecular Biosciences, 2022).
Peptide text beside a SMILES is read from it.

Legend:
[1] = system: HEK293 human kidney cells; assay: Cell toxicity (MTT assay), HEK293; assay type: cell-based; settings: copper ions alone, absence of peptides, read-out: LC50 (the source's name)
Description: (§1) HEK293 and MCF7 cells were cultured in Dulbecco’s modified Eagle’s medium (DMEM) high glucose medium, with fetal bovine serum (10%), L-glutamine (1%), and PSNS antibiotic (1%). The HepG2 cell line was cultured in Eagle’s minimum essential medium (EMEM), with fetal bovine serum (10%), L-glutamine (1%) and PSNS antibiotic (1%). The THLE-3 cell line was cultured in BGEM medium according to manufacturer’s instructions. All cell line types were cultured at 37°C with 5% CO2. The culture media was changed every 2 days. At 80% confluence, the cells were harvested using 0.25% trypsin and sub-cultured into 75 cm^2 flasks, 24-well plates, or 96-well plates, according to the experiment. The cells were then treated with a range of peptide concentrations suspended in medium without serum for 24 h. After the 24 h treatment, the various toxicity end points were evaluated in the control and peptide-exposed cells.
(§2) Peptides were introduced at various concentrations (three triplicates per concentration) ranging from 0 to 1 mM and incubated with the different cell lines (HEK293/MCF7/HepG2/THLE-3) for 24 h at 37°C. […] Lysates were transferred to 96-well plates and absorption values were collected using a Synergy plate reader at 570 nm wavelength. […] The absorption of the control (without peptide) was determined at 100%; all peptide concentrations were compared to the control sample. […]

MCF7 breast cancer cells = assay: Cell toxicity (MTT assay), MCF7; assay type: cell-based; settings: copper ions alone, absence of peptides, read-out: LC50 (the source's name)
Description: as §1, §2

HepG2 liver cancer cells = assay: Cell toxicity (MTT assay), HepG2; assay type: cell-based; settings: copper ions alone, absence of peptides, read-out: LC50 (the source's name)
Description: as §1, §2

Atox1 = molecular target: T1, Atox1 (Homo sapiens, UniProt O00244); assay: Microscale thermophoresis (MST) binding to Atox1; settings: neither in the presence nor in the absence of Cu(I)
T1 construct: made in house; host or cells: E. coli Origami 2 (as for ATP7B MBD3-4)
T1 sequence (O00244 1-68): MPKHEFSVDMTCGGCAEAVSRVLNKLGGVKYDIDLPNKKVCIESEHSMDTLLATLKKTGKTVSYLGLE
Description: To better understand the EPR and CD experiments, MST binding experiments were performed. MST is a physical phenomenon whereby biomolecules migrate along a temperature gradient according to their size, hydrodynamic radius, charge, and hydration shell. The target biomolecule is fluorescently labeled and monitored over the course of the experiment. An infra-red laser is used to create a temperature gradient for a given time. Since binding interactions can alter the properties listed above, a binding curve can be created with a ligand titration series. Fixed amounts of labelled MBD3-4 or Atox1 were incubated with increasing concentrations of SMD or KER peptides, in the presence or absence of Cu(I) (Figure 3). […]
The labelling was performed with reactive dyes using N-hydroxysuccinimide (NHS)–ester chemistry. […] Purity was monitored by measuring the ratio of protein to dye (spectroscopically, for example, by measuring absorption at 280 nm for protein and 650 nm for the dye; molar absorbance: 250,000 M^−1 cm^−1) after the clean-up procedure.
(§3) MBD3-4 and Atox1 were labeled on lysine residues with red fluorescent NT-647-NHS using the NanoTemper labeling kit. […] Normalized fluorescence was detected at a ratio of [Fnorm = Fhot/Finitial]. Fluorescence was measured before IR-laser heating (Finitial) and after a specific IR-laser heating (Fhot) time. […]

ATP7B MBD3-4 = molecular target: T2, ATP7B MBD3-4 (Homo sapiens, UniProt P35670); assay: Microscale thermophoresis (MST) binding to MBD3-4; settings: for Kd: in the presence of Cu(I) (40 µM), protein 50 nM
T2 construct: […]; made in house; host or cells: E. coli Origami 2
T2 sequence (P35670 234-439): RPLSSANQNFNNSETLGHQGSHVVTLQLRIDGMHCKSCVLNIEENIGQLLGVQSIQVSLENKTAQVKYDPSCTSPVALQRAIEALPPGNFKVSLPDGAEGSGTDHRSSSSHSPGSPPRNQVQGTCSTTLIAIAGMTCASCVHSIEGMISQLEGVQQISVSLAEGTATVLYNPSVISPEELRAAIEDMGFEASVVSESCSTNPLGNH
Description: To better understand the EPR and CD experiments, MST binding experiments were performed. MST is a physical phenomenon whereby biomolecules migrate along a temperature gradient according to their size, hydrodynamic radius, charge, and hydration shell. The target biomolecule is fluorescently labeled and monitored over the course of the experiment. An infra-red laser is used to create a temperature gradient for a given time. Since binding interactions can alter the properties listed above, a binding curve can be created with a ligand titration series. Fixed amounts of labelled MBD3-4 or Atox1 were incubated with increasing concentrations of SMD or KER peptides, in the presence or absence of Cu(I) (Figure 3). […] The measured KD values of the SMD peptide were in the tens of µM range for both Atox1 (39 ± 3 μM) and MBD3-4 (45 ± 4 μM), whereas KER peptide preferentially interacted with Atox1 (20 ± 2 μM). The KD for the interaction with MBD3-4 was slightly higher (36 ± 3 μM).
The labelling was performed with reactive dyes using N-hydroxysuccinimide (NHS)–ester chemistry. The protein concentration was adjusted to 20 μM using HEPES buffer. Briefly, the solid fluorescent dye was dissolved in DMSO at a concentration of about 1.3 mM and mixed thoroughly. Before mixing the protein and dye, the concentration of the dye was adjusted to twice that of the protein using HEPES buffer. Then, the protein and fluorescent dye solutions were mixed at a 1:1 ratio and incubated for 30 min at room temperature in the dark. […] Purity was monitored by measuring the ratio of protein to dye (spectroscopically, for example, by measuring absorption at 280 nm for protein and 650 nm for the dye; molar absorbance: 250,000 M^−1 cm^−1) after the clean-up procedure.
as §3

[2] = molecular target: ATP7B MBD3-4, fluorescently labelled (NT-647-NHS)
[3] = molecular target: T3, Atox1, fluorescently labelled (NT-647-NHS) (UniProt O00244 1-68, red fluorescent NT-647-NHS on lysine residues); assay: cell-based or functional assay
T3 sequence (looked up): T1 sequence (O00244 1-68)

[4] = molecular target: ATP7B MBD3-4, fluorescently labelled (NT-647-NHS); assay: MST; with Cu(I) 40 uM; labelled protein 50 nM, peptide titrated; 25 mM Na2HPO4 pH 8, 150 mM NaCl, 0.05% Tween 20; 25 C; Monolith NT.115
[5] = molecular target: T3, Atox1, fluorescently labelled …; assay: as above; settings: both partners purified

Chain of ATP7B MBD3-4, fluorescently labelled (NT-647-NHS) (P35670 whole entry): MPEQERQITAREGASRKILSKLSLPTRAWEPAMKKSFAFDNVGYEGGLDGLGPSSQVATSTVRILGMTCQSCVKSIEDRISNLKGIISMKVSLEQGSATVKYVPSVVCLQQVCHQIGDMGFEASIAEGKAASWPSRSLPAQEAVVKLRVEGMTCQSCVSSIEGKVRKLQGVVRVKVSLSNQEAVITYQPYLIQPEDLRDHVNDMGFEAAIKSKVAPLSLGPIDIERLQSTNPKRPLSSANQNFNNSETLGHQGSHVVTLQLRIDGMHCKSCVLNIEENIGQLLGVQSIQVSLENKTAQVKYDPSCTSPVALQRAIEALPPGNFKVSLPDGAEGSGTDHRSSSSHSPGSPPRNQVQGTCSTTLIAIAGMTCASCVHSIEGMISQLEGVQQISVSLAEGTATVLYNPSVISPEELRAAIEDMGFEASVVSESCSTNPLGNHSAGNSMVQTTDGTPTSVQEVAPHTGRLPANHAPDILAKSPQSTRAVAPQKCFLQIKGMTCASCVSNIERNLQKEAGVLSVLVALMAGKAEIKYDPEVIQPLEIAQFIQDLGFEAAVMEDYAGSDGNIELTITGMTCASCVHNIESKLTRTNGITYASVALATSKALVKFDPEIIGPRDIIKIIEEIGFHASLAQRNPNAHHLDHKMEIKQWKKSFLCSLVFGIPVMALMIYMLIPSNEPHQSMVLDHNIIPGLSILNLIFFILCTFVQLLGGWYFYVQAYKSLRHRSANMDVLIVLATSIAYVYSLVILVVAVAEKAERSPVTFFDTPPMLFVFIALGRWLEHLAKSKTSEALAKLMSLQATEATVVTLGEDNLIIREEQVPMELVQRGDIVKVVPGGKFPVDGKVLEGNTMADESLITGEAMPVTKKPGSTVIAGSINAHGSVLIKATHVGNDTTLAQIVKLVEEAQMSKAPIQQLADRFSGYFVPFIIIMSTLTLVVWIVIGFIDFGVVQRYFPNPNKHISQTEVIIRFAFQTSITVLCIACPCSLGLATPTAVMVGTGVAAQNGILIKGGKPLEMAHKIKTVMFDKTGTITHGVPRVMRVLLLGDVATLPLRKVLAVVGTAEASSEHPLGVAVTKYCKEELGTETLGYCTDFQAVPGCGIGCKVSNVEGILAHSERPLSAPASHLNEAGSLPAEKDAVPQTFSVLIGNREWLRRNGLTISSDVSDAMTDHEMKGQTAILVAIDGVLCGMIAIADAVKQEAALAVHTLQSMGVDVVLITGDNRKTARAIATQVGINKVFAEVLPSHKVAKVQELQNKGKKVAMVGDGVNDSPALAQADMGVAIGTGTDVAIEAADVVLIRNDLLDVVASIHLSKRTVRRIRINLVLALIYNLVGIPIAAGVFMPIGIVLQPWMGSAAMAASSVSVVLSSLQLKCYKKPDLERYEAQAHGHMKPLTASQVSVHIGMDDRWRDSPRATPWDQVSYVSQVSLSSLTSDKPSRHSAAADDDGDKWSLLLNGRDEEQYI

`[Cu+2]` [Cu(II)] showed a CC50 [1] of 196 µM, a CC50 (MCF7 breast cancer cells) of 180 µM and a CC50 (HepG2 liver cancer cells) of 205 µM.

With GAGAAA [Ala] the “Binding interaction with Atox1 (MST)” value (Atox1) was “No binding interaction was observed” and the “Binding interaction with MBD3-4 (MST)” value (ATP7B MBD3-4; neither in the presence nor in the absence of Cu(I)) was “No binding interaction was observed”.

For `CC[C@H](C)[C@H](NC(=O)[C@H](CO)NC(=O)[C@H](CCSC)NC(=O)[C@H](CC(=O)O)NC(=O)[C@H](CCSC)NC(=O)[C@@H](N)CO)C(=O)N[C@@H](CCC(=O)O)C(N)=O` [SMD, SMDMSIE] (H-SMDMSIE-NH2), the Kd (ATP7B MBD3-4) was 45 ± 4 µM.

`C[C@@H](O)[C@H](NC(=O)[C@H](CCCNC(=N)N)NC(=O)[C@H](CCC(=O)O)NC(=O)[C@@H](N)CCCCN)C(=O)N[C@@H](CO)C(=O)N[C@@H](CCCNC(=N)N)C(N)=O` [KER, KERTSR] (H-KERTSR-NH2) was tested, and the Kd (ATP7B MBD3-4) was 36 ± 3 µM.

`[Cu+]` [Cu(I)] was tested, and the CC50 [1] was 150 µM, the CC50 (MCF7 breast cancer cells) was 165 µM and the CC50 (HepG2 liver cancer cells) was 170 µM.

B1: KER peptide (peptide)
peptide: KERTSR
notes: Made on rink-amide resin, which would give a C-terminal amide; also called KERTSR; source: synthetic peptide (Fmoc, rink-amide resin, reverse phase HPLC; 99.4% purity)
With B1 the intracellular 64Cu content of MCF7 cells 4 h after 64Cu(II) injection, with peptide against without [2] was 3 fold, the “intracellular 64Cu content of MCF7 cells 4 h after 64Cu(II) injection, with peptide against without” value [3] was 3 fold and the Kd [4] was 36 µM. The Kd [5] was 20 ± 2 µM.

B2: SMD peptide (peptide)
peptide: SMDMSIE
notes: Made on rink-amide resin, which would give a C-terminal amide; also called SMDMSIE; source: synthetic peptide (Fmoc, rink-amide resin, reverse phase HPLC; 95.1% purity)
With B2 the intracellular 64Cu content of MCF7 cells 4 h after 64Cu(II) injection, with peptide against without [2] was 5 fold, the “intracellular 64Cu content of MCF7 cells 4 h after 64Cu(II) injection, with peptide against without” value [3] was 5 fold and the Kd [4] was 45 µM. It also gave a Kd [5] of 39 ± 3 µM.
